From patent US20140128333A1, “Compounds, Compositions, and Methods for Decreasing Intestinal Glucose Uptake and Inducing Incretin Release” (MAQUI NEW LIFE S.A., priority 2012, published 2014)
“Also recorded” adds a separate entry of the source.

Columns and labels:
[1] = target: T1, SGLT-1 (Mus musculus, UniProt Q8C3K6); experiment: Ussing chamber: sodium-coupled D-glucose transport in mouse jejunum (short circuit current); settings: 50 μM delphinidin on mucosal side
T1 construct: Two sections of jejunum per animal were mounted in Ussing Chambers; from tissue; host or cells: jejunum of C57Bl/6J mice
T1 sequence (Q8C3K6 1-665): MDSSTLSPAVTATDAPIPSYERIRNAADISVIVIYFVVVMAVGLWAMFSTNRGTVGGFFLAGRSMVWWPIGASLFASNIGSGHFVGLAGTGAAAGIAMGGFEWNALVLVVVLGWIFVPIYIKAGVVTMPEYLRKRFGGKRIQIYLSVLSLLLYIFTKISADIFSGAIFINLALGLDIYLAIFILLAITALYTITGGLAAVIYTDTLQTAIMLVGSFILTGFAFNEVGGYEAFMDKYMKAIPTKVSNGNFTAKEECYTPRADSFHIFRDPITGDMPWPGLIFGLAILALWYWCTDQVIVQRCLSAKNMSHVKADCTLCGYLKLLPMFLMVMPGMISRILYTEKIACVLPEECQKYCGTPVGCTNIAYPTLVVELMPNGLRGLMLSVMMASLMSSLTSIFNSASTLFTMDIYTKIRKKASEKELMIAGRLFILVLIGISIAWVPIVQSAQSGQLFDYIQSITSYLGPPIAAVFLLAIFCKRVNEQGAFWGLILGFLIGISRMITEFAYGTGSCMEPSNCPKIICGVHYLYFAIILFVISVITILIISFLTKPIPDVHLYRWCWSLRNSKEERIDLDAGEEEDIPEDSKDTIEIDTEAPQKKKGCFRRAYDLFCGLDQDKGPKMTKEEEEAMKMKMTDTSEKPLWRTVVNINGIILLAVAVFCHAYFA
Text: C57B1/6J mice were obtained from The Jackson Laboratory (Bar Harbor, Me., USA). The mice were maintained at the Specific Pathogen Free mouse facility of the Centro de Estudios Científicos (CECS), Valdivia, Chile and prior to the experiments they had free access to water and food. Animals were killed by cervical dislocation according to local Institutional Animal Care and Use Committee (IACUC) regulations. The jejunum was isolated, open longitudinally along the mesenteric border and rinsed with phosphate buffered saline (PBS).
Two sections of jejunum per animal were mounted in Ussing Chambers and maintained in Ussing buffer (120 Mm NaCl, 25 mM NaHCO3, KH2PO4 3.3 mM, 0.8 mM K2HPO4, 1.2 mM MgCl2 and 1.2 mM CaCl2) supplemented with 10 mM D-glucose in the serosal side. […] The effect of delphinidin on sodium-coupled transport of glucose was determined by application of this molecule at a concentration of 50 μM in the mucosal side of the preparation. The transepithelial electrical potential difference (VM), defined as the potential side compared to serous mucus preparation was recorded continuously under current clamp configuration using a VCC MC2 amplifier (Physiological Instruments). The values of short circuit current (Isc) were calculated from experimental data using Ohm's law. The results are expressed as the intensity of the Isc (μA/cm^2). […]

[2] = test system: GLP-1 mRNA expression; experiment: GLP-1 mRNA expression in NCI-H716 cells by qRT-PCR; type: cell-based; settings: delphinidin 10, 50 or 100 μM tested, increase at 50 and 100 μM, 24 h
Procedure: Total RNA was isolated from […] cells using the RNeasy Plus Mini Kit according to the manufacturer's instructions. Approximately 1 μg of total RNA, 0.5 μg of oligo (dT)18 primer, 10 mM dNTPs and 200 U of reverse transcriptase were used for each cDNA synthesis reaction. PCR amplifications were performed using the Brilliant II SYBR Green QPCR Master Mix (Stratagene) according to the manufacturer's instructions. All reactions were carried out using an Mx300p thermal cycler (Stratagene, Calif., USA). GLP-1 specific primers were used.

[3] = target: T2, GPR40 receptor (Homo sapiens, UniProt O14842); experiment: Measurement of calcium influx in Fura-2/AM-loaded HT-29 cells; type: cell-based; settings: 100 μM
T2 construct: To assess and ensure the participation of GPR40 on calcium mobilization induced by delphinidin and cyanidin, Fura-2/AM-loaded HT-29 cells; endogenous in cells; host or cells: HT-29 cells
Procedure: HT-29 cells were suspended in HBSS at a concentration of 20×10^6 cells/ml and incubated with 1 μM Fura-2/AM (Molecular Probes) for 30 min at 37° C. The cells were then washed twice, divided into 2×10^6 cells/ml aliquots and maintained at 4° C. in the dark until use. Cells were then pelleted by centrifugation at 1200 rpm for 6 min and re-suspended in 2 ml HEPES buffer [20 mM HEPES, pH 7.2; 140 mM NaCl; 10 mM glucose; 1 mM KCl; 1 mM Ca^2+ chloride (CaCl2); and 1 mM MgCl2].
The influx of Ca^2+ was recorded as the 340:380 excitation ratio at 509 nm emission in a LS55 thermoregulated spectrofluorimeter (Perkin-Elmer, Mass., USA).

[4] = test system: GLP-1 production; experiment: GLP-1 production in NCI-H716 cells by flow cytometry; type: cell-based; settings: 50 μM delphinidin, 48 hrs, Brefeldin A
Procedure: After two washes in PBS, the cells were stained with mouse anti-GLP-1 antibody for 1 hr at 4° C. The cells were washed twice with PBS, incubated for 1 hr at 4° C. with anti-mouse Alexa 488 (1:200 dilution) and finally washed twice with PBS. The cells were assessed by flow cytometry on a FACSCanto II (Becton Dickinson).

T2 sequence (O14842 whole entry): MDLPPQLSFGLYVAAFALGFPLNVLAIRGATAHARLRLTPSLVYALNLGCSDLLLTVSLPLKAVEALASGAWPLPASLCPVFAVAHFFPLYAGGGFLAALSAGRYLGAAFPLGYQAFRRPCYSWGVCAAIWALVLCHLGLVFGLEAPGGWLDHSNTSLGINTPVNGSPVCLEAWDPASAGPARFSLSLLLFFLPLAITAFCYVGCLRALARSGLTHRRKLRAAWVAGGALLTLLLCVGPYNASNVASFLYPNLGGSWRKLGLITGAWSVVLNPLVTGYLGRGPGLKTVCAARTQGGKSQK

Oc1cc(O)c2cc(O)c(-c3cc(O)c(O)c(O)c3)[o+]c2c1 [Delphinidin, 2-(3,4,5-trihydroxyphenyl)chromenylium-3,5,7-triol]
decrease of sodium current (Isc) induced by 10 mM D-glucose / inhibition of glucose transport by jejunal mucosa ([1]; n=4): about 40% | decrease of sodium current (Isc) induced by 10 mM D-glucose / inhibition of glucose transport by jejunal mucosa ([1]; n=4, listed as delphinidin): approximately 60% | expression of GLP-1 mRNA with respect to control [2]: induces; also recorded: increased | calcium fluxes (340/380 ratio) in HT-29 cells [3]: induces calcium fluxes | amount of GLP-1 compared to control cells [4]: induced an increase
